Reference: ChEMBL document CHEMBL1201862, “PubChem BioAssay data set” (2004)
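Compound exposure: 48 hours, 5 concentrations, 96-well plates. GI50 marks 50% less growth.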 Activity calls are given as the source filed them. Cut-off read from the data, not from the text of the source: active = GI50 up to about 1.1 µM and inactive = higher.

How the values were obtained:
Test in all cases: DTP human tumour cell line panel, 48 h
NCI-H23 = test system: NCI-H23
OVCAR-8 = test system: OVCAR-8
NCI/ADR-RES = test system: NCI/ADR-RES
SF-295 = test system: SF-295
SN12C = test system: SN12C
HOP-92 = test system: HOP-92
RPMI-8226 = test system: RPMI-8226
PC-3 = test system: PC-3
MDA-N = test system: MDA-N
CAKI-1 = test system: CAKI-1
SR = test system: SR
SK-MEL-28 = test system: SK-MEL-28
SF-539 = test system: SF-539
MOLT-4 = test system: MOLT-4
EKVX = test system: EKVX
LOX IMVI = test system: LOX IMVI
COLO 205 = test system: COLO 205
SK-MEL-5 = test system: SK-MEL-5
DU-145 = test system: DU-145
T47D = test system: T47D

Measured: GI50

C[C@H]1C(=O)O[C@@H]1[C@H]1COC(C)(C)O1
inactive: NCI-H23 > 100 µM | OVCAR-8 > 100 µM | NCI/ADR-RES > 100 µM | SF-295 > 100 µM | SN12C > 100 µM | HOP-92 > 100 µM | RPMI-8226 > 100 µM | PC-3 > 100 µM | MDA-N > 100 µM | CAKI-1 > 100 µM | SR > 100 µM | SK-MEL-28 > 100 µM | SF-539 > 100 µM | MOLT-4 > 100 µM | EKVX > 100 µM

COc1cc(/C=C/C(=O)Oc2ccc(NC(C)=O)cc2)ccc1C(=O)O/C=C/c1ccccc1
inactive: NCI-H23 > 100 µM | OVCAR-8 > 100 µM | NCI/ADR-RES > 100 µM | SF-295 > 100 µM | SN12C > 100 µM | HOP-92 > 100 µM | LOX IMVI > 100 µM | RPMI-8226 > 100 µM | COLO 205 > 100 µM | SK-MEL-5 > 100 µM | SK-MEL-28 > 100 µM | SF-539 > 100 µM | MOLT-4 66.8 µM | EKVX > 100 µM

Cc1ccc(/N=N/c2c(O)c(C(=O)O)cc3ccccc23)cc1C
inactive: NCI-H23 > 100 µM | OVCAR-8 > 100 µM | NCI/ADR-RES > 100 µM | SF-295 > 100 µM | HOP-92 > 100 µM | RPMI-8226 > 100 µM | PC-3 > 100 µM | COLO 205 > 100 µM | SK-MEL-5 > 100 µM | CAKI-1 > 100 µM | SR > 100 µM | SK-MEL-28 > 100 µM | SF-539 > 100 µM | MOLT-4 > 100 µM | EKVX > 100 µM

O=C(COc1ccc(OCC(=O)N2C(=O)CS/C2=N\c2ccccc2)cc1)N1C(=O)CS/C1=N\c1ccccc1
inactive: NCI-H23 19.5 µM | NCI/ADR-RES 19.5 µM | SF-295 33.3 µM | DU-145 30.8 µM | SN12C 24.8 µM | HOP-92 26.2 µM | RPMI-8226 22.5 µM | PC-3 14.8 µM | COLO 205 20.5 µM | SK-MEL-5 11.6 µM | MDA-N 20.7 µM | CAKI-1 20.6 µM | SK-MEL-28 5.6 µM | MOLT-4 14.6 µM | EKVX 32.8 µM

Cc1nc2ccc(F)cc2c2c1CCN2c1ccc(Cl)cc1
inactive: NCI-H23 5.15 µM | OVCAR-8 9.71 µM | NCI/ADR-RES 4.88 µM | SF-295 4.33 µM | DU-145 29.4 µM | SN12C 11.8 µM | HOP-92 2.69 µM | LOX IMVI 12.5 µM | PC-3 3.85 µM | COLO 205 6.71 µM | SK-MEL-5 3.56 µM | MDA-N 4.25 µM | CAKI-1 13.9 µM | SK-MEL-28 12.2 µM | SF-539 10.5 µM

C=C1C(=O)OC2CC(C)C(C(CC(C)=O)OC(C)=O)=CCC12 (stereo unspecified)
inactive: NCI-H23 17.2 µM | OVCAR-8 18.9 µM | NCI/ADR-RES 13.8 µM | SF-295 23.8 µM | DU-145 16.5 µM | SN12C 4.27 µM | HOP-92 6.87 µM | LOX IMVI 6.78 µM | RPMI-8226 3.87 µM | PC-3 19.3 µM | COLO 205 6.82 µM | SK-MEL-5 14.2 µM | T47D 20.4 µM | CAKI-1 3.16 µM | SR 2.88 µM | SK-MEL-28 8.24 µM | SF-539 15.3 µM | MOLT-4 4.07 µM | EKVX 11.8 µM

CC(=O)N1[C@H](C(=O)O)CS[C@H]1c1ccncc1
inactive: NCI-H23 > 100 µM | OVCAR-8 32.7 µM | SF-295 > 100 µM | SN12C > 100 µM | HOP-92 > 100 µM | LOX IMVI > 100 µM | RPMI-8226 > 100 µM | COLO 205 > 100 µM | SK-MEL-5 > 100 µM | CAKI-1 > 100 µM | SR > 100 µM | SK-MEL-28 > 100 µM | SF-539 > 100 µM | MOLT-4 > 100 µM | EKVX > 100 µM

CCCCCC(C[N+]1(C)CCOCC1)C(=O)/C=C/c1ccccc1 (stereo unspecified)
inactive: NCI-H23 14.7 µM | OVCAR-8 12.7 µM | SF-295 7.74 µM | SN12C 13.5 µM | HOP-92 18.7 µM | LOX IMVI 1.76 µM | RPMI-8226 1.54 µM | COLO 205 15.7 µM | SK-MEL-5 13.4 µM | CAKI-1 16.9 µM | SR 2.91 µM | SK-MEL-28 16.2 µM | SF-539 9.79 µM | MOLT-4 3.03 µM | EKVX 19.9 µM

COc1ccc(N2C(=O)C3c4[nH]c5ccc(Br)cc5c4C4CCC(C(C)(C)C)CC4C3C2=O)cc1 (stereo unspecified)
inactive: NCI-H23 > 100 µM | OVCAR-8 > 100 µM | NCI/ADR-RES > 100 µM | SF-295 > 100 µM | DU-145 > 100 µM | SN12C > 100 µM | LOX IMVI > 100 µM | RPMI-8226 > 100 µM | PC-3 > 100 µM | COLO 205 > 100 µM | SK-MEL-5 > 100 µM | MDA-N > 100 µM | CAKI-1 > 100 µM | SR > 100 µM | SK-MEL-28 > 100 µM | SF-539 > 100 µM | MOLT-4 > 100 µM | EKVX > 100 µM
